Each structure is given as a SMILES string. Several values for one entry are separate records, joined by “and”; a condition that tells them apart may be missing. Equal entries are not always repeated.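 A five-concentration, 48-hour dose response in 96-well plates underlies each endpoint, interpolated linearly between surrounding concentrations. Abbreviation: GI50, concentration required for 50% inhibition of growth. At the TGI there is no net growth.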

The text below walks through data of PubChem BioAssay (NCI).

Assay in all cases: DTP human tumour cell line panel, 48 h
The test system of test [1] is A498 renal.
Test [2] relates to HS 578T breast.
The subject of test [3] is MDA-MB-435.
In test [4] the test system is HCC-2998 colon.
The test system of test [5] is PC-3 prostate.
The subject of test [6] is T-47D breast.
Test [7] concerns MDA-N.
Test [8] has as its system DU-145 prostate.
Test [9] relates to SF-539 CNS.
For test [10], the system named is SNB-78 CNS.

A word on the TGI: it is the concentration at which net growth stops. Higher therefore signals lower sensitivity of the cells. For `Cc1sc(Cc2ccccc2)nc1-c1ccc(N)cc1`, the TGI in test [1] is above 100 µM; in [2] it was above 100 µM; in test [3], 37.7 µM; in [4] it was 35.5 µM; in [5], 89.7 µM.
Take `CCOC(=O)/C(Cl)=C(\C)Nc1nc2c(ccc3ccccc32)s1`: the total growth inhibition concentration (TGI) is above 100 µM in [1]; above 100 µM in test [2]; 43.6 µM in test [6]; 39.2 µM in [4]; above 100 µM in test [7]; above 100 µM in [5]. This compound also displayed a TGI in test [8] of 46.6 µM.
Regarding `O=c1oc2ccccc2c(Nc2ccc3c(c2)S(=O)(=O)c2ccccc2O3)c1[N+](=O)[O-]`, the TGI is above 100 µM in test [2]; 97.3 µM in test [3]; 62.3 µM in [6]; 52.6 µM in test [4]; 85.3 µM in [7]; 62.1 µM in test [5]. Besides, the TGI was above 100 µM in [8] and 65.2 µM in test [9].
As a reminder, the GI50 is the concentration at which growth is held to half of that of the control. Take `Cc1cc(NCc2cc(Nc3ccnc4cc(Cl)ccc34)ccc2F)nc(N2CCCC2)n1`: the GI50 was 1.44 µM in [1], 1.61 µM in test [2], 1.61 µM in test [3] and 1.94 µM in test [8]. Besides, the TGI in [1] turned out to be 3.32 µM; in test [2], 4.6 µM; in [3] it was 3.01 µM; in test [8], 4.46 µM.
Consider `NC(N)=N/N=C/c1c(-c2ccccc2)nc2n1ccc1nc(-c3ccccc3)c(/C=N/N=C(N)N)n12`, for which the TGI in test [1], in test [2], in [3], in [6], in [5] and in test [8] was above 100 µM in each case. Besides, the TGI in test [9] was above 100 µM.
In the case of `C[C@@H]1CC[C@H]2C(COCCOCC3=C(C(F)(F)F)O[C@@H]4O[C@@]5(C)CC[C@H]6[C@H](C)CC[C@@H]3[C@@]46OO5)=C(C(F)(F)F)O[C@@H]3O[C@@]4(C)CC[C@@H]1[C@]32OO4`, the GI50 in [1] was above 20.2 µM; in [3] it was 0.0426 µM; in test [6] it was below 0.014 µM; in [4] it was above 11.9 µM; in test [5], below 0.01 µM; in test [8], above 100 µM. The GI50 in test [9] is 0.0264 µM. Also, the TGI in test [1] was above 96.9 µM; in test [2], above 100 µM; in test [3], above 100 µM; in test [6], above 94.6 µM; in test [4] it was above 100 µM; in test [5] it was above 100 µM. The results for the TGI in [8] and in test [9] were above 100 µM and above 69.8 µM, respectively.
For the compound `CC1=NN(c2ccccc2)C(=O)/C1=C/c1ccc(O)cc1`, the total growth inhibition concentration (TGI) in test [1], in [2], in test [3], in [6], in test [4] and in test [7] was above 100 µM throughout. Further, the concentration for total growth inhibition (TGI) in [5], in test [8] and in test [9] was above 100 µM throughout.
Turning to `CC1=C2C(=O)c3ccccc3C(=O)[C@H]2[C@H]2CCO[C@H]2O1`, the total growth inhibition concentration (TGI) is above 100 µM in [1]; above 100 µM in test [2]; 39.8 µM in test [3]; above 100 µM in [6]; 48.1 µM in [4]; 36.6 µM in test [7]. Moreover, the total growth inhibition concentration (TGI) in test [5] was above 100 µM; in [8] it was 47 µM; in test [9], 43.9 µM.
Take `COc1ccc(-c2c3c(nc4nc(SCCc5ccccc5)nc(N)c24)CCCC3)cc1OC`: the TGI in [2], in test [3], in [6], in test [7], in test [5] and in test [8] was above 100 µM throughout. Moreover, the TGI in test [9] was above 100 µM.
For `O=S(=O)(Sc1ccc(Cl)cc1)c1ccc(Cl)cc1`, the TGI was found to be 34.5 µM in test [1], 45.9 µM in [10], 40.7 µM in test [4] and 27.7 µM in [9].
Take `CN1CCCCC1CCN1CCCCC1` (stereo not drawn): the concentration for total growth inhibition (TGI) in [1], in [2], in test [3], in test [6], in test [4] and in [7] was above 100 µM throughout. For the same compound, the total growth inhibition concentration (TGI) in [5] and in [8] was above 100 µM throughout.
Regarding `CCCCCCNC(=O)c1cnc(Cl)cn1`, the TGI in test [2] is 44.4 µM; in test [3], 28.9 µM; in [6], above 100 µM; in [5], 22.8 µM; in test [8], 29.6 µM; in [9] it was 35.4 µM.
`Cc1c2cc[n+](CCN3CCCCC3)cc2c(C)c2c1[nH]c1ccc(O)cc12`: the GI50 in [1] was 3.48 µM; in [4], 14.3 µM; in test [9], 7.38 µM. The TGI in [1] is 48 µM and 30.5 µM; in test [2], above 100 µM; in test [10], 64.1 µM; in test [3], 34.5 µM; in test [6] it was 12.1 µM; in [4] it was 53 µM and 37.4 µM. In addition, the TGI in [7] was 51 µM; in test [5] it was 28.6 µM; in test [8] it was 11.5 µM; in test [9] it was 34.5 µM and > 58.8 µM.
Regarding `CN(C)CCCNc1ccc2ncn3c4ccccc4c(=O)c1c23`, the results for the TGI in [10] and in test [9] were 78.7 µM and 90.8 µM, respectively.
